# Earlier results, collected in US8202858B2, “Vasopressin V1a antagonists” (priority 2004, dated 2012).
# Biological target: T1, V1a vasopressin receptor (Homo sapiens, UniProt P37288)
# T1 construct: host or cells: patients (clinical study)
# Conditions: patients with dysmenorrhoea, compared to placebo
# T1 sequence (P37288 whole entry): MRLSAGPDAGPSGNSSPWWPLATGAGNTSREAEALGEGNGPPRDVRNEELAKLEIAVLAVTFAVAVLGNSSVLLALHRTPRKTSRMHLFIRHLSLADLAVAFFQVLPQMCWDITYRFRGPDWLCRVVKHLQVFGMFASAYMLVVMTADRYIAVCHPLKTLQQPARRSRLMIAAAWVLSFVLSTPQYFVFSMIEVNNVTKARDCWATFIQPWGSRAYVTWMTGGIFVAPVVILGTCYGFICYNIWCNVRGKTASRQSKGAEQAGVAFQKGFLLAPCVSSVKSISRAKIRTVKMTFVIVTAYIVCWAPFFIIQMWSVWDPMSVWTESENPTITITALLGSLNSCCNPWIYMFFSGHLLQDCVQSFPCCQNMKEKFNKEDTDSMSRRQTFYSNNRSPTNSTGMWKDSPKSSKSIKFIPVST
compound,measurement,value
COc1ccc(S(=O)(=O)N2c3ccc(Cl)cc3[C@](O)(c3ccccc3Cl)[C@@H]2C(=O)N2CCC[C@H]2C(N)=O)cc1OC [SR49059],amount of additional pain-killer taken,dose-related decrease in the amount of additional pain-killer taken
same,pain,dose-related decrease in pain
